Laboratory results as given in US6797077B2, “Latex paint remover” (Pentagonal Holdings, Inc., priority 2000, dated 2004).
Entries after “also recorded” stand apart in the source; their conditions may differ.

What was measured:
Assay type in all cases: in vivo
[1] = Skin irritation, 16 CFR 1500.41 and 1500.3(c)(4)
Experimental: (§1) A cleaning composition composed of pure IBIB was tested for toxicity, skin irritation and eye irritation according to the protocol of the Federal Hazardous Substances Act, 16 CFR 1500.3(c)(2)(i), 1500.41 and 1500.42.

[2] = Eye irritation, 16 CFR 1500.42 and 1500.3(c)(4)
Experimental: as §1

[3] = Acute oral toxicity, Federal Hazardous Substances Act 16 CFR 1500.3(c)(2)(i)
Experimental: as §1

For `CC(C)COC(=O)C(C)C` [IBIB, Isobutyl isobutyrate], the Skin irritation conclusion ([1]; 16 CFR 1500.41) was “not considered to be a primary skin irritant”, the “Primary Dermal Irritation Score (Average)” value ([1]; in vivo) was 2.4 and the Eye irritation conclusion ([2]; 16 CFR 1500.42) was “not considered to be a primary eye irritant”. The “Maximum Mean Total Score (Average)” value ([2]; eye irritation) was 3.3, the “Acute oral toxicity conclusion” value ([3]; 16 CFR 1500.3(c)(2)(i)) was “non-toxic; also recorded: Not considered as toxic” and the “Acute Oral LD50” value ([3]; dose level 5,000 mg/kg) was “Acute Oral LD50 greater than five (5) grams per gram body weight”.
